Experimental data published in patent publication US6995182B2, “1-sulfonyl pyrrolidine derivatives” (Hoffmann-La Roche Inc., priority 2000, dated 2006).

melting point [°C] | Structure (SMILES)
186 | Cc1ccc(S(=O)(=O)N2[C@@H](C(=O)NCc3cccnc3)CC[C@H]2c2ccc(F)cc2)cc1.Cl (racemic)
91 | COC(=O)[C@H]1CC[C@@H](c2ccc(F)cc2)N1S(=O)(=O)c1ccc(C)cc1 (racemic) [Example 1, (2RS,5SR)-5-(4-Fluoro-phenyl)-1-(toluene-4-sulfonyl)-pyrrolidine-2-carboxylic acid methyl ester]
82 | Cc1ccc(S(=O)(=O)N2[C@@H](CO)CC[C@H]2c2ccc(F)cc2)cc1 (racemic) [Example 2, (2RS,5SR)-[5-(4-Fluoro-phenyl)-1-(toluene-4-sulfonyl)-pyrrolidin-2-yl]-methanol]
137 | Cc1ccc(S(=O)(=O)N2[C@@H](C(N)=O)CC[C@H]2c2ccc(F)cc2)cc1 (racemic) [Example 3, (2RS,5SR)-5-(4-Fluoro-phenyl)-1-(toluene-4-sulfonyl)-pyrrolidine-2-carboxylic acid amide]
217 | Cc1ccc(S(=O)(=O)N2[C@@H](C(=N)NO)CC[C@H]2c2ccc(F)cc2)cc1 (racemic) [Example 7, (2RS,5SR)-5-(4-Fluoro-phenyl)-N-hydroxy-1-(toluene-4-sulfonyl)-pyrrolidine-2-carboxamidine]
152 | COC[C@@H]1CC[C@H](c2ccc(F)cc2)N1S(=O)(=O)c1ccc(C)cc1 (racemic) [Example 8, (2RS,5SR)-2-(4-Fluoro-phenyl)-5-methoxymethyl-1-(toluene-4-sulfonyl)-pyrrolidine]
117 | CC(=O)NC[C@H]1CC[C@@H](c2ccc(F)cc2)N1S(=O)(=O)c1ccc(C)cc1 (racemic) [Example 9, (2RS,5SR)-N-[5-(4-Fluoro-phenyl)-1-(toluene-4-sulfonyl)-pyrrolidin-2-yl-methyl]-acetamide]
116 | Cc1ccc(S(=O)(=O)N2[C@@H](CC#N)CC[C@H]2c2ccc(F)cc2)cc1 (racemic) [Example 10, (2RS,5SR)-[5-(4-Fluoro-phenyl)-1-(toluene-4-sulfonyl)-pyrrolidin-2-yl]-acetonitrile]
165 | Cc1ccc(S(=O)(=O)N2[C@@H](c3ncon3)CC[C@H]2c2ccc(F)cc2)cc1 (racemic) [Example 14, (2RS,5SR)-3-[5-(4-Fluoro-phenyl)-1-(toluene-4-sulfonyl)-pyrrolidin-2-yl]-[1,2,4]oxadiazole]
142 | CCC(=O)NC[C@H]1CC[C@@H](c2ccc(F)cc2)N1S(=O)(=O)c1ccc(C)cc1 (racemic) [Example 15, (2RS,5SR)-N-[5-(4-Fluoro-phenyl)-1-(toluene-4-sulfonyl)-pyrrolidin-2-yl-methyl]-propionamide]
60 | Cc1ccc(S(=O)(=O)N2[C@@H](CCNC(=O)c3ccccc3)CC[C@H]2c2ccc(F)cc2)cc1 (racemic) [Example 18, (2RS,5SR)-N-{2-[5-(4-Fluoro-phenyl)-1-(toluene-4-sulfonyl)-pyrrolidin-2-yl]-ethyl}-benzamide]
124 | CC(=O)NCC[C@H]1CC[C@@H](c2ccc(F)cc2)N1S(=O)(=O)c1ccc(C)cc1 (racemic) [Example 20, (2RS,5SR)-N-{2-[5-(4-Fluoro-phenyl)-1-(toluene-4-sulfonyl)-pyrrolidin-2-yl]-ethyl}-acetamide]
128 | Cc1ccc(S(=O)(=O)N2[C@@H](c3nc(C)no3)CC[C@H]2c2ccc(F)cc2)cc1 (racemic) [Example 25, (2RS,5SR)-5-[5-(4-Fluoro-phenyl)-1-(toluene-4-sulfonyl)-pyrrolidin-2-yl]-3-methyl-[1,2,4]oxadiazole]
160 | Cc1ccc(S(=O)(=O)N2[C@@H](c3ncn(C)n3)CC[C@H]2c2ccc(F)cc2)cc1 (racemic) [Example 26, (2RS,5SR)-3-[5-(4-Fluoro-phenyl)-1-(toluene-4-sulfonyl)-pyrrolidin-2-yl]-1-methyl-1H-[1,2,4]triazole]
150 | Cc1ccc(S(=O)(=O)N2[C@@H](c3nnn(C)n3)CC[C@H]2c2ccc(F)cc2)cc1 (racemic) [Example 27, (2RS,5SR)-5-[5-(4-Fluoro-phenyl)-1-(toluene-4-sulfonyl)-pyrrolidin-2-yl]-2-methyl-2H-tetrazole]
136 | Cc1ccc(S(=O)(=O)N2[C@@H](CCC(N)=O)CC[C@H]2c2ccc(F)cc2)cc1 (racemic) [Example 29, (2RS,5SR)-3-[5-(4-Fluoro-phenyl)-1-(toluene-4-sulfonyl)-pyrrolidin-2-yl]-propionamide]
91 | Cc1ccc(S(=O)(=O)N2[C@@H](CCc3nc(C)no3)CC[C@H]2c2ccc(F)cc2)cc1 (racemic) [Example 30, (2RS,5SR)-5-{2-[5-(4-Fluoro-phenyl)-1-(toluene-4-sulfonyl)-pyrrolidin-2-yl]-ethyl}-3-methyl-[1,2,4]oxadiazole]
86 | Cc1ccc(S(=O)(=O)N2[C@@H](CCC#N)CC[C@H]2c2ccc(F)cc2)cc1 (racemic) [Example 31, (2RS,5SR)-3-[5-(4-Fluoro-phenyl)-1-(toluene-4-sulfonyl)-pyrrolidin-2-yl]-propionitrile]
134 | Cc1ccc(S(=O)(=O)N2[C@@H](CCC(=N)NO)CC[C@H]2c2ccc(F)cc2)cc1 (racemic) [Example 34, (2RS,5SR)-3-[5-(4-Fluoro-phenyl)-1-(toluene-4-sulfonyl)-pyrrolidin-2-yl]-N-hydroxy-propionamidine]
147 | Cc1ccc(S(=O)(=O)N2[C@@H](CNC(=O)C3CCCC3)CC[C@H]2c2ccc(F)cc2)cc1 (racemic) [Example 37, (2RS,5SR)-Cyclopentanecarboxylic acid [5-(4-fluoro-phenyl)-1-(toluene-4-sulfonyl)-pyrrolidin-2-yl-methyl]-amide]
128 | Cc1ccc(S(=O)(=O)N2[C@@H](CNC(=O)C(C)(C)C)CC[C@H]2c2ccc(F)cc2)cc1 (racemic) [Example 38, (2RS,5SR)-N-[5-(4-Fluoro-phenyl)-1-(toluene-4-sulfonyl)-pyrrolidin-2-yl-methyl]-2,2-dimethyl-propionamide]
93 | Cc1ccc(S(=O)(=O)N2[C@@H](CCCO)CC[C@@H]2c2ccc(F)cc2)cc1 (racemic) [Example 44, (2RS,5RS)-3-[5-(4-Fluoro-phenyl)-1-(toluene-4-sulfonyl)-pyrrolidin-2-yl]-propan-1-ol]
74 | Cc1ccc(S(=O)(=O)N2[C@H](CCCC#N)CC[C@@H]2c2ccc(F)cc2)cc1 (racemic) [Example 45, (2RS,5RS)-4-[5-(4-Fluoro-phenyl)-1-(toluene-4-sulfonyl)-pyrrolidin-2-yl]-butyronitrile]
107 | Cc1ccc(S(=O)(=O)N2[C@H](CCCc3nnn(C)n3)CC[C@@H]2c2ccc(F)cc2)cc1 (racemic) [Example 49, (2RS,5RS)-5-{3-[5-(4-Fluoro-phenyl)-1-(toluene-4-sulfonyl)-pyrrolidin-2-yl]-propyl}-2-methyl-2H-tetrazole]
153 | Cc1ccc(S(=O)(=O)N2[C@H](CCCc3nnnn3C)CC[C@@H]2c2ccc(F)cc2)cc1 (racemic) [Example 50, (2RS,5RS)-5-{3-[5-(4-Fluoro-phenyl)-1-(toluene-4-sulfonyl)-pyrrolidin-2-yl]-propyl}-1-methyl-1H-tetrazole]
